Measured values taken from ChEMBL document CHEMBL4765394, “From irreversible to reversible covalent inhibitors: Harnessing the andrographolide scaffold for anti-inflammatory action” (Eur J Med Chem, 2020).
Calls of active or inactive are those of the source. The rule behind the calls is not given here.

Legend:
RAW-Blue [1] = assay: Activation of NF-kappaB activity in mouse RAW-Blue cells assessed as increase in SEAP reporter activity at 5 to 20 uM measured after 24 hrs by SEAP reporter gene assay; type: cell-based; settings: dose 5-20 µM
RAW-Blue [2] = assay: Inhibition of LPS-induced NF-kappaB activity in mouse RAW-Blue cells assessed as reduction in SEAP reporter activity at 5 to 20 uM preincubated for 1 hr followed by LPS stimulation and measured after 24 hrs by SEAP reporter gene assay; type: cell-based; settings: dose 5-20 µM, time 25.0 hrs
RAW264.7 [3] = assay: Antiinflammatory activity in mouse RAW264.7 cells assessed as inhibition of LPS-induced TNFalpha release at 5 to 10 uM preincubated for 1 hr followed by LPS stimulation and measured after 4 hrs by ELISA; type: functional, cell-based; settings: dose 5-10 µM, time 5.0 hrs
RAW264.7 [4] = assay: Activation of JNK phosphorylation in mouse RAW264.7 cells at 50 uM measured after 4 hrs by Western blot analysis; type: cell-based
[5] = molecular target: T1, Nuclear factor NF-kappa-B p105 subunit (Homo sapiens) (UniProt P19838); assay: Inhibition of DNA binding activity of human NF-kappaB p50 measured after 1 hr by ELISA
T1 sequence (whole entry): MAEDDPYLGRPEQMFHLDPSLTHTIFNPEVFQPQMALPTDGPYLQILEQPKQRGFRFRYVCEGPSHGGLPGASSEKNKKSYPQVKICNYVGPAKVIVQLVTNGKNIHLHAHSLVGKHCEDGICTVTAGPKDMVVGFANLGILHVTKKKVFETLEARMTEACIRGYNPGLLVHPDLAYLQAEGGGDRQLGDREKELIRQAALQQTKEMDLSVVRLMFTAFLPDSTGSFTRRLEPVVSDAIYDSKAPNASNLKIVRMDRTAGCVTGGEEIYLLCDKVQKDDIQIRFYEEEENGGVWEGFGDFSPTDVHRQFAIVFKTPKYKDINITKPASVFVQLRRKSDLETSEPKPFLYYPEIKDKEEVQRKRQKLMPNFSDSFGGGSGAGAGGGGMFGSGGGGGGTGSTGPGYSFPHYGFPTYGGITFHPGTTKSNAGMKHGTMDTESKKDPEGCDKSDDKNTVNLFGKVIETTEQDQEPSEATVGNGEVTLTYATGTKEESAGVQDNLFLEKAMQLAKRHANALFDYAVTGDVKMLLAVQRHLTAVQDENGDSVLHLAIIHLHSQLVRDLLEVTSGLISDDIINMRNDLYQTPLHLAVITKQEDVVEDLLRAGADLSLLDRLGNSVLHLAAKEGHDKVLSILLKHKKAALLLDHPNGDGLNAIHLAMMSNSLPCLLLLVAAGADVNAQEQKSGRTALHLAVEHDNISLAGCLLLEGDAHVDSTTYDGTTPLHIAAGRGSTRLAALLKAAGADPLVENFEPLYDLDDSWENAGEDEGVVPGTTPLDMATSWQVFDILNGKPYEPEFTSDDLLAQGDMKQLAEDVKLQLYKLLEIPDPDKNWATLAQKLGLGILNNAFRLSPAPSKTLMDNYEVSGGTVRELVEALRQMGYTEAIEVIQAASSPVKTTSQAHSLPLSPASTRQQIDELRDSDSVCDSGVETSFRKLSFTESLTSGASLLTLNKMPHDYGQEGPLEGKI

Mus musculus [6] = assay: Antiinflammatory activity in ip dosed LPS-induced BALB/c mouse model of acute lung injury assessed as reduction in total cell count administered twice daily for 4 days starting 1 hr post LPS challenge by differential staining based flow cytometry; type: functional, organism-based; settings: time 4.0 day
RAW264.7 [7] = assay: Antiinflammatory activity in 24 hrs NAC-pretreated mouse RAW264.7 cells assessed as inhibition of LPS-induced TNFalpha release at 10 uM preincubated for 1 hr followed by LPS stimulation and measured after 4 hrs by ELISA relative to control; type: functional; settings: time 5 hrs
Mus musculus [8] = assay: Antiinflammatory activity in LPS-induced BALB/c mouse model of acute lung injury assessed as reduction in neutrophil cell count at 1 mg/kg, ip administered twice daily for 4 days starting 1 hr post LPS challenge by differential staining based flow cytometry relative to control; type: functional; set-up: scale not given: the % may be the effect or the level left; settings: time 4 day
[9] = molecular target: T2, Mitogen-activated protein kinase 1 and 3 (ERK2 and ERK1) (Mus musculus) (UniProt P63085+Q63844); assay: Inhibition of LPS-induced ERK1/2 activation in mouse RAW264.7 cells assessed as reduction in ERK1/2 phosphorylation at 20 uM measured after 4 hrs by Western blot analysis; type: cell-based
Mus musculus [10] = assay: Antiinflammatory activity in LPS-induced BALB/c mouse model of acute lung injury assessed as reduction in total cell count at 1 mg/kg, ip administered twice daily for 4 days starting 1 hr post LPS challenge by differential staining based flow cytometry relative to control; type: functional; set-up: scale not given: the % may be the effect or the level left; settings: time 4 day
[11] = Cytotoxicity against HEK293 cells assessed as reduction in cell viability measured after 24 hrs by Celltiter-glo assay; type: cell-based; settings: human
[12] = molecular target: RAC-alpha serine/threonine-protein kinase (Mus musculus) (UniProt P31750); assay: Inhibition of LPS-induced AKT activation in mouse RAW264.7 cells assessed as reduction in AKT phosphorylation measured after 4 hrs by Western blot analysis; type: cell-based
RAW-Blue [13] = assay: Activation of NF-kappaB activity in mouse RAW-Blue cells assessed as increase in SEAP reporter activity at 30 uM measured after 24 hrs in presence of p38 inhibitor SB203580 by SEAP reporter gene assay; type: cell-based
RAW264.7 [14] = assay: Antiinflammatory activity in 2 hrs NAC-pretreated mouse RAW264.7 cells assessed as inhibition of LPS-induced TNFalpha release at 10 uM preincubated for 1 hr followed by LPS stimulation and measured after 4 hrs by ELISA relative to control; type: functional; settings: time 5 hrs
[15] = Cytotoxicity against human L02 cells assessed as reduction in cell viability measured after 24 hrs by Celltiter-glo assay; type: cell-based
Mus musculus [16] = assay: Antiinflammatory activity in ip dosed LPS-induced BALB/c mouse model of acute lung injury assessed as reduction in neutrophil cell count administered twice daily for 4 days starting 1 hr post LPS challenge by differential staining based flow cytometry; type: functional, organism-based; settings: time 4.0 day
RAW264.7 [17] = assay: Antiinflammatory activity in 4 hrs NAC-pretreated mouse RAW264.7 cells assessed as inhibition of LPS-induced TNFalpha release at 10 uM preincubated for 1 hr followed by LPS stimulation and measured after 4 hrs by ELISA relative to control; type: functional; settings: time 5 hrs
[18] = molecular target: RAC-alpha serine/threonine-protein kinase (Mus musculus) (UniProt P31750); assay: Inhibition of LPS-induced AKT activation in BSO-treated mouse RAW264.7 cells assessed as reduction in AKT phosphorylation at 10 uM preincubated for 1 hr followed by LPS-stimulation measured after 4 hrs by Western blot analysis; settings: time 5.0 hrs
RAW264.7 [19] = assay: Antiinflammatory activity in mouse RAW264.7 cells assessed as inhibition of LPS-induced IL6 release at 5 to 10 uM preincubated for 1 hr followed by LPS stimulation and measured after 24 hrs by ELISA; type: functional, cell-based; settings: dose 5-10 µM, time 25.0 hrs
[20] = Aqueous stability of compound; type: physicochemical; settings: buffer
[21] = GSH reactivity in PBS assessed as isomerization measured up to 24 hrs by HPLC-MS analysis; type: ADME; settings: buffer
RAW-Blue [22] = assay: Inhibition of LPS-induced NF-kappaB activity in mouse RAW-Blue cells assessed as reduction in SEAP reporter activity at 5 to 20 uM preincubated for 1 hr followed by LPS stimulation and measured after 8 hrs by SEAP reporter gene assay; type: cell-based; settings: dose 5-20 µM, time 9.0 hrs
[23] = GSH reactivity in PBS assessed as GSH adduct formation measured up to 8 hrs by HPLC-MS analysis; type: ADME; settings: buffer
[24] = GSH reactivity in PBS assessed as GSH adduct formation by measuring half life by HPLC-MS analysis; type: ADME
[25] = molecular target: T1, Nuclear factor NF-kappa-B p105 subunit (Homo sapiens); assay: Binding affinity to human NF-kappaB p50 assessed as compound-adduct formation by MALDI-TOF analysis
RAW264.7 [26] = assay: Cytotoxicity against mouse RAW264.7 cells assessed as reduction cell viability at 5 to 50 uM measured after 24 hrs by Celltiter-glo assay; type: cell-based; settings: raw264.7, 24 h, dose 5-50 µM
RAW264.7 [27] = assay: Activation of JNK phosphorylation in BSO-treated mouse RAW264.7 cells at 50 uM measured after 4 hrs by Western blot analysis
[28] = molecular target: T2, Mitogen-activated protein kinase 1 and 3 (ERK2 and ERK1) (Mus musculus); assay: Inhibition of LPS-induced ERK1/2 activation in BSO-treated mouse RAW264.7 cells assessed as reduction in ERK1/2 phosphorylation at 10 uM preincubated for 1 hr followed by LPS-stimulation measured after 4 hrs by Western blot analysis; settings: time 5.0 hrs
[29] = Effect on total AKT expression in LPS-induced mouse RAW264.7 cells at 5 to 20 uM measured after 4 hrs by Western blot analysis; settings: raw264.7, 4 h, dose 5-20 µM

RAC-alpha serine/threonine-protein kinase (Mus musculus), sequence (P31750 whole entry): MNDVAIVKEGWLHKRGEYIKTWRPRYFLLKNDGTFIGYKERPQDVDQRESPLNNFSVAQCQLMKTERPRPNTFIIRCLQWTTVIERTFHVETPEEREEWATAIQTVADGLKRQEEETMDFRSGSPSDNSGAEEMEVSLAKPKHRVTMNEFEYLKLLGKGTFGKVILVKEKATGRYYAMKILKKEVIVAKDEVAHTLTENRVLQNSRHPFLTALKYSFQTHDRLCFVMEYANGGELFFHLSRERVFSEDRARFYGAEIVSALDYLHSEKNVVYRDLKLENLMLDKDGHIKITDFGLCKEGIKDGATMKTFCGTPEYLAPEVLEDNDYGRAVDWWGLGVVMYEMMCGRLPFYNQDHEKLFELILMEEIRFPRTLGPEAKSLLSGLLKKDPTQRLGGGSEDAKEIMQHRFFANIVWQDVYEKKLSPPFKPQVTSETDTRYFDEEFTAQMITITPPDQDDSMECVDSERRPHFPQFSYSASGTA
T2 sequence (P63085 whole entry, looked up): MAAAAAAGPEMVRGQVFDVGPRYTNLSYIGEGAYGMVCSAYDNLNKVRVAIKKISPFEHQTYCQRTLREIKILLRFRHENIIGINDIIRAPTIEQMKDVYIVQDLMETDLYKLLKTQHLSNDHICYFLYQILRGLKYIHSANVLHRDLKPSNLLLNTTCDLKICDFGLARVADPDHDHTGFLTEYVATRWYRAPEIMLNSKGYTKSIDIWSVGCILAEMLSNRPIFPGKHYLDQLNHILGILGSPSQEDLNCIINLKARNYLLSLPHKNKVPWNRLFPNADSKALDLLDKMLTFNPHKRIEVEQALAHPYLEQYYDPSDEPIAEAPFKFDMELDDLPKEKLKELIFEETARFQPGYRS
T2 sequence (Q63844 whole entry, looked up): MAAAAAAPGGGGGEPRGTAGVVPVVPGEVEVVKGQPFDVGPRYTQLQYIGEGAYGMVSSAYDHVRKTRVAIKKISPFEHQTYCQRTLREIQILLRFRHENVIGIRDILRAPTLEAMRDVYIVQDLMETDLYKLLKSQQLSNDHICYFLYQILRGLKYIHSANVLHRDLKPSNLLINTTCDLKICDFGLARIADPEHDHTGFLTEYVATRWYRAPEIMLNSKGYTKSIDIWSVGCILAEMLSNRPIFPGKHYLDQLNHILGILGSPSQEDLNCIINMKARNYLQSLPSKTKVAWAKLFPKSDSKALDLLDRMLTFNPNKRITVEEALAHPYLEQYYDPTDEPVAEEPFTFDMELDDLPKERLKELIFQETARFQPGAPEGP

inhibition [5]: Dose-dependent effect
inhibition [9]: Active
inhibition [12]: Dose-dependent effect
inhibition [18]: Active
Stabilty [20]: Stable
Drug metabolism [21]: Metabolite_Notdetected
K [23]: 2.11e-05 M⁻¹ s⁻¹
t1/2 [24]: 6.47 h
Activity [25]: Active
inhibition [28]: Active
Structure (SMILES): C=C1CC[C@@H]2[C@](C)(CO)[C@H](O)CC[C@@]2(C)[C@@H]1C/C=C/C(C)=O
Activity (RAW-Blue [1]): inactive
inhibition (RAW-Blue [2]): Active
inhibition (RAW264.7 [3]): Active
Activity (RAW264.7 [4]): inactive
Activity (Mus musculus [6]): Dose-dependent effect
inhibition at 10 µM (RAW264.7 [7]): 51%
Activity (Mus musculus [8]): >30%
Activity (Mus musculus [10]): >30%
CC50 at 24 h [11]: 67 µM
Activity (RAW-Blue [13]): inactive
inhibition at 10 µM (RAW264.7 [14]): 12%
CC50 at 24 h [15]: 30.1 µM
Activity (Mus musculus [16]): Dose-dependent effect
inhibition at 10 µM (RAW264.7 [17]): 23%
inhibition (RAW264.7 [19]): Active
inhibition (RAW-Blue [22]): Active
Activity (RAW264.7 [26]): Toxic
Activity (RAW264.7 [27]): inactive
Activity [29]: Non-Toxic
